Measured values taken from publication PMC2885599 (Current Chemical Genomics, 2010).

What was measured:
unphosphorylated Met = settings: cited from earlier work
phosphorylated Met = settings: read-out: IC50 on phosphorylated Met; cited from earlier work
[1] = test system: phosphorylated enzyme (c-Met); settings: phosphorylated vs unphosphorylated enzyme; cited from earlier work
unphosphorylated c-Met = unphosphorylated c-Met (Homo sapiens, UniProt P08581); assay: c-Met kinase HTRF assay, unphosphorylated form; assay type: biochemical
unphosphorylated c-Met, sequence (P08581 956-1390 limits assumed): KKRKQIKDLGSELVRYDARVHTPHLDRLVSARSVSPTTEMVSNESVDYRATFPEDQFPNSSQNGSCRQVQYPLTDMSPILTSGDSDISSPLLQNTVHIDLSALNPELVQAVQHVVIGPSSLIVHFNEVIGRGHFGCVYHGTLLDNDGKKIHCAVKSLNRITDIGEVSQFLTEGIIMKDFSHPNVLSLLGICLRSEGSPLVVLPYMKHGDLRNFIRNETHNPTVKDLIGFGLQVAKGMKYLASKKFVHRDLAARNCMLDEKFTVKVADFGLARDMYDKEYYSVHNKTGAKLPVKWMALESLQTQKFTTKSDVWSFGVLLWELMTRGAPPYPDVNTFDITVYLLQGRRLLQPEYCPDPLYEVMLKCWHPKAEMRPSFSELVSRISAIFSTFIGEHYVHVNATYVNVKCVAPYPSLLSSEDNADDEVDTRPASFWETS

[2] = test system: SNU5 gastric cancer cell line in which c-Met is amplified; assay: SNU5 proliferation assay; assay type: cell-based; settings: Homo sapiens, SNU-5, read-out: IC50 in SNU5 proliferation assays
phosphorylated c-Met = phosphorylated c-Met (Homo sapiens, UniProt P08581); assay: c-Met kinase HTRF assay, phosphorylated form; settings: IC50 on the phosphorylated form
phosphorylated c-Met, sequence (P08581 956-1390 limits assumed): as above

In the case of `COc1cc2c(Oc3ccc(-c4cnc(Cc5ccccc5)n(C)c4=O)cc3F)ccnc2cc1OCCCN1CCOCC1` [AM7, 5-(3-fluoro-4-((6-(methyloxy)-7-((3-(4 morpholinyl)prpyl)oxy)-4-quinolinyl)oxy)phenyl)-3-methyl-2-(phenylmethyl)-4(3H)-pyrimidin-one], the “fold more potent on unphosphorylated Met” value (unphosphorylated Met) is given as “more than 3 fold”, the IC50 (unphosphorylated Met; read-out: IC50 on unphosphorylated Met) is given as 5 nM and the IC50 (phosphorylated Met) is given as 17 nM.
For `CN(C[C@@H]1COCCO1)S(=O)(=O)Nc1ccc2ccc3ncc(-c4cnn(C)c4)cc3c(=O)c2c1` [MK2461], the “binds to the phosphorylated enzyme tighter” value [1] is given as 6 fold.
For `Cc1[nH]c(/C=C2\C(=O)Nc3ccc(S(=O)(=O)N(C)c4cccc(Cl)c4)cc32)c(C)c1C(=O)N1CCN(C)CC1` [SU11274], the “difference in potency, phosphorylated vs unphosphorylated form” value (unphosphorylated c-Met) was 55 fold, the IC50 [2] was 30 nM and the IC50 (phosphorylated c-Met) was 275 nM.
